Structures can show the parent of a compound that is named as a salt. Where two headings read alike, the source gives them in different places.
How the values were obtained:
[1] = test system: arterial pressure of spontaneously hypertensive rats (SHR); experiment: Evaluation on the arterial pressure in spontaneously hypertensive rats (SHR), telemetry; assay type: in vivo; conditions: SHR rat, maximum change of arterial pressure relative to basal
Experimental: The effect of the ROCK inhibitors was tested by the reduction of the arterial pressure (AP) that they induce in spontaneously hypertensive rats (SHR) after intravenous (i.v.) and/or oral administration. In summary, the SHRs were anaesthetised with 2% isoflurane, and a telemetry probe (PAC40, Data Science International) was implanted in the abdominal aorta to record the AP and a polyethylene catheter was implanted in the jugular vein for the i.v. administration. After recovery from the surgery (2 to 3 weeks), the AP was recorded continuously for 24 hours after administration of the ROCK inhibitors at doses of 1, 3, 10 and 30 mg/kg by the i.v. route and/or by the oral route. The effect on the AP was expressed as the percentage reduction relative to the basal arterial pressure before administration of the product.

[2] = biological target: human ROCK1 (Homo sapiens, UniProt Q13464); experiment: ROCK1 enzymatic test (LANCE, phosphorylation of Ulight-RRRSLLE (PLK) substrate); assay type: biochemical; conditions: human recombinant enzyme, 1 μM ATP, 50 nM Ulight-RRRSLLE (PLK) substrate, 30 minutes at ambient temperature; read-out: ROCK1(h), IC50
Experimental: Evaluation of the effects of compounds on human ROCK1 activity quantified by measuring the phosphorylation of the substrate Ulight-RRRSLLE (PLK) using a human recombinant enzyme and the LANCE® detection method.
The test compound, the reference compound or water (control) is mixed with the enzyme (8.2 ng) in a buffer comprising 40 mM Hepes/Tris (pH 7.4), 0.8 mM EGTA/Tris, 8 mM MgCl2, 1.6 mM DTT and 0.008% Tween 20.
The reaction is then started by adding 50 nM of Ulight-RRRSLLE (PLK) substrate and 1 μM of ATP, and the mixture is incubated for 30 minutes at ambient temperature. For the basal control measurements, the enzyme is excluded from the reaction mixture.
After the incubation, the reaction is stopped by adding 13 mM of EDTA. After 5 minutes, the anti-phospho-PLK antibody labelled with europium chelate is added. After a further 60 minutes, the fluorescence transfer is measured at lex=337 nm, lem=620 nm and lem=665 nm using a microplate reader (Envision, Perkin Elmer). The enzymatic activity is determined by dividing the signal measured at 665 nm by that measured at 620 nm (ratio). The results are expressed in the form of a percentage inhibition of the control enzymatic activity. The standard reference inhibition compound is staurosporine, which is tested in each experiment at several concentrations in order to obtain an inhibition curve on the basis of which the value of the IC50 (concentration that induces 50% inhibition) is calculated.

[3] = test system: aortic segments of the rat (contraction induced by PHE); experiment: Functional test (rat aorta): vascular reactivity on aortic rings without endothelium contracted with phenylephrine; conditions: aortic rings without endothelium contracted with PHE 10^-6 M, read-out: Relaxation (rat aorta + PHE), IC50
From the text: Functional Test (Rat Aorta) Study of Vascular Reactivity on Aortic Segments of the Rat. After anaesthesia of the animal, the thoracic aorta is removed and immediately placed in a physiological saline solution (PSS). The proximal thoracic aorta is cleaned of adherent conjunctive tissue and 4 aortic rings (3-4 mm) are cut. The endothelium is removed mechanically without damaging the smooth muscle cells. The rings without endothelium are placed in PSS medium in isolated organ baths maintained at 37° C. in the presence of carbogen. The isometric tension of the rings is recorded by means of a force sensor. At their optimum tension, the rings are subjected to an equilibration period during which the physiological medium is replaced regularly. The preparations are then contracted twice by means of a hyperpotassic solution (KCl 60 mM), each of the 2 contractions being followed by successive washings in order to return to the original tension. The absence of endothelium is verified after contraction by an al-adrenergic receptor agonist, phenylephrine (PHE, 10^−6M), followed by the addition of carbachol (10^−5M), a muscarinic receptor agonist, which induces a relaxation only in the presence of endothelium. The rings are then washed regularly with PSS for 60 minutes in order to remove the pharmacological agents. The rings are recontracted with PHE (10^−6M) and then, after stabilisation of the contraction, the product or its solvent is added in cumulative concentrations, 5 concentrations are tested: 10M^−8, 10^−7M, 10^−6M, 10M^−5 and 3×10^−5M (if the product is dissolved in DMSO) or 10^−4M (if H2O is the solvent of the product). The contractile response is obtained in milligrams (mg). The results are expressed by the mean±SEM of the contractile responses obtained on at least 2 rats. The variations in tension of each product are calculated as a percentage of the maximum contraction induced by PHE before the product is added, according to the formula: % contraction B(t)=[×(mg) tension(compound)B(t)/y (mg) maximum tension (PHE)B]×100. The concentration-response curves obtained are analysed and allow the IC50 value of each product to be determined (IC50: concentration of product necessary to inhibit 50% of the maximum contraction induced by PHE), the estimation of the IC50 value of the concentration-response curves being obtained by non-linear regression.

[4] = IV 3 mg/kg, read-out: SHR rat ΔAP % max, IV 3 mg/kg
[5] = PO 3 mg/kg, read-out: SHR rat ΔAP % max, PO 3 mg/kg

human ROCK1, sequence (Q13464 whole entry): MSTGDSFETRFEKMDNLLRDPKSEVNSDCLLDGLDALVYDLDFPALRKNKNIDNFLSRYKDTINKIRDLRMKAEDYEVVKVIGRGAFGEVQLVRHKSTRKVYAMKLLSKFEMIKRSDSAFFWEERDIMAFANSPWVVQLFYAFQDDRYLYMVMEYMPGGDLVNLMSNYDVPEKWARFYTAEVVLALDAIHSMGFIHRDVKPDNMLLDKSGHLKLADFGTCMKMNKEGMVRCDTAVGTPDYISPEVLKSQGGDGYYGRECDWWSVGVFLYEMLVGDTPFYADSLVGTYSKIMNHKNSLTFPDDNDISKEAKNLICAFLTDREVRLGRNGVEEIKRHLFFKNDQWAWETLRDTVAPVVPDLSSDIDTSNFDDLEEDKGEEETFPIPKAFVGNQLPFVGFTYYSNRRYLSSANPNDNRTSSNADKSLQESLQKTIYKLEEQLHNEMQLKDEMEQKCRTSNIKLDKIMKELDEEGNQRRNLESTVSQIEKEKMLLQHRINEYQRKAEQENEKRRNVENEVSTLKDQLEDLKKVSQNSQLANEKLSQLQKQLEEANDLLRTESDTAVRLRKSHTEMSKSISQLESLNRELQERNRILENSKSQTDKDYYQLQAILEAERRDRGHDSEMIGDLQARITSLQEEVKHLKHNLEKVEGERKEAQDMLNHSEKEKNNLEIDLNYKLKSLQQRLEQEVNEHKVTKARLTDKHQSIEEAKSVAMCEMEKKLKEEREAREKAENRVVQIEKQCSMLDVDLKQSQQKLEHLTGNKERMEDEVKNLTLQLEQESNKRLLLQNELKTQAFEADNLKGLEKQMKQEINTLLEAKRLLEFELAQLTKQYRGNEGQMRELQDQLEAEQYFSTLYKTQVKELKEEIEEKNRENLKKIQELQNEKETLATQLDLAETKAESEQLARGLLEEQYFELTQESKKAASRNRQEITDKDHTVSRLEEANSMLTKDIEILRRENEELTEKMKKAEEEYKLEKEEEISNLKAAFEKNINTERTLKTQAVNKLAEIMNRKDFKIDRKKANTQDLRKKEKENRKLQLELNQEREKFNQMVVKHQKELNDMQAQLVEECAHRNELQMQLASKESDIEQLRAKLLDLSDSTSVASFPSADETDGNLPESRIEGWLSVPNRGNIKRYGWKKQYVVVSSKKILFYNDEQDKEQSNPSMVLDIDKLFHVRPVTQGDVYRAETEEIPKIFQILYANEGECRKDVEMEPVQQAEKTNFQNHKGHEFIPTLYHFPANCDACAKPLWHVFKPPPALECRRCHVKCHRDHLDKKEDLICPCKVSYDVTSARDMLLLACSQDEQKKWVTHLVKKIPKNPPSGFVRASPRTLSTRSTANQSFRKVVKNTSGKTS

| IC50 [2] [nM] | IC50 [3] [nM] | Structure (SMILES) | change in vivo at 3 mg/kg [1, 4] [%] | change in vivo at 3 mg/kg [1, 5] [%] |
| --- | --- | --- | --- | --- |
| 9.6 | 200 | COc1c(C(C)N)ccc(C(=O)c2cccc3c(=O)[nH]ccc23)c1F (stereo not drawn) [Product P42, 5-[4-(1-Aminoethyl)-2-fluoro-3-methoxybenzoyl]isoquinolin-1(2H)-one hydrochloride] | -59.9 | -12.3 |
| 7.45 | 150 | CC(NCCO)c1cc(F)c(C(=O)c2cccc3c(=O)[nH]ccc23)c(F)c1 (stereo not drawn) [Product P48, 5-(2,6-Difluoro-4-{1-[(2-hydroxyethyl)amino]ethyl}benzoyl)isoquinolin-1(2H)-one hydrochloride] | -67.3 | -29.2 |
| – | 200 | CC(N)c1cc(F)c(C(=O)c2cccc3cnccc23)c(F)c1 (stereo not drawn) [Product P6, [4-(1-Aminoethyl)-2,6-difluorophenyl](isoquinolin-5-yl)methanone dihydrochloride] | -73.4 | -35.6 |
| 5.35 | 170 | C[C@@H](N)c1ccc(C(=O)c2cccc3c(=O)[nH]ccc23)c2c1OCCO2 [Product P61, 5-({8-[(1R)-1-Aminoethyl]-2,3-dihydro-1,4-benzodioxin-5-yl}carbonyl)isoquinolin-1(2H)-one hydrochloride] | -59 | – |
| 1.95 | 550 | N[C@@H]1CCc2cc(F)c(C(=O)c3cccc4c(=O)[nH]ccc34)c(F)c21 [Product P59, 5-{[(3R)-3-Amino-4,6-difluoro-2,3-dihydro-1H-inden-5-yl]carbonyl}isoquinolin-1(2H)-one hydrochloride] | -40.3 | – |
| 10.4 | 200 | O=C(c1c(F)cc(C2CCCCN2)cc1F)c1cccc2c(=O)[nH]ccc12 (stereo not drawn) [Product P75, 5-[2,6-Difluoro-4-(piperidin-2-yl)benzoyl]isoquinolin-1(2H)-one hydrochloride] | -49.8 | -12.4 |
| 4.2 | 14 | CC(N)c1cc(F)c(C(=O)c2cccc3c(O)nccc23)c(F)c1 (stereo not drawn) [Product P17, [4-(1-Aminoethyl)-2,6-difluorophenyl](1-hydroxyisoquinolin-5-yl)methanone hydrochloride] | -72.8 | -56.6 |
| 6.78 | 40 | Cc1cc([C@@H](C)N)ccc1C(=O)c1cccc2c(=O)[nH]ccc12 [Product P47, 5-{4-[(1R)-1-Aminoethyl]-2-methylbenzoyl}isoquinolin-1(2H)-one hydrochloride] | -62.7 | -26.4 |
| 3.85 | 70 | NC1CCc2c1cc(F)c(C(=O)c1cccc3c(=O)[nH]ccc13)c2F (stereo not drawn) [Product P58, 5-[(1-Amino-4,6-difluoro-2,3-dihydro-1H-inden-5-yl)carbonyl]isoquinolin-1(2H)-one hydrochloride] | -65.1 | -52.7 |
| 8.7 | 50 | CC(C)(N)c1cc(F)c(C(=O)c2cccc3c(=O)[nH]ccc23)c(F)c1 [Product P27, 5-[4-(2-Aminopropan-2-yl)-2,6-difluorobenzoyl]isoquinolin-1(2H)-one hydrochloride] | -69 | -54 |
| 20.5 | 2000 | NC(CC1CCCCC1)c1cc(F)c(C(=O)c2cccc3c(=O)[nH]ccc23)c(F)c1 (stereo not drawn) [Product P129, 5-[4-(1-Amino-2-cyclohexylethyl)-2,6-difluorobenzoyl]isoquinolin-1(2H)-one hydrochloride] | -30.2 | -18.4 |
| 16.5 | 150 | C[C@@H](N)c1ccc(F)c(C(=O)c2cccc3c(=O)[nH]ccc23)c1F [Product P56, 5-{3-[(1R)-1-Aminoethyl]-2,6-difluorobenzoyl}isoquinolin-1(2H)-one hydrochloride] | -54.7 | – |
| 63 | 230 | CC(N)c1cc(F)c(Cc2cccc3cnccc23)c(F)c1 (stereo not drawn) [Product P19, 1-[3,5-Difluoro-4-(isoquinolin-5-ylmethyl)phenyl]ethanamine dihydrochloride] | -39.6 | – |
| 5 | 100 | C[C@@H](N)c1ccc(C(=O)c2cccc3c(=O)[nH]ccc23)c2c1CCCO2 [Product P45, 5-({5-[(1R)-1-Aminoethyl]-3,4-dihydro-2H-chromen-8-yl}carbonyl)isoquinolin-1(2H)-one hydrochloride] | -60.6 | -24 |
| 5.87 | 33 | C[C@@H](N)c1cc(F)c(C(=O)c2cccc3cnccc23)c(F)c1 [Product P9, {4-[(1R)-1-Aminoethyl]-2,6-difluorophenyl}(isoquinolin-5-yl)methanone dihydrochloride] | -67 | -53.7 |
| – | 1000 | C[C@H](N)c1cc(F)c(C(O)c2cccc3cnccc23)c(F)c1 (single isomer, unassigned; enantiomer 1) [Product P21] | – | – |
| 87.5 | 2000 | NCC1CCOc2c(C(=O)c3cccc4c(=O)[nH]ccc34)cccc21 (stereo not drawn) [Product P139, 5-{[4-(Aminomethyl)-3,4-dihydro-2H-chromen-8-yl]carbonyl}isoquinolin-1(2H)-one hydrochloride] | – | – |
| 5.4 | 100 | Cc1c[nH]c(=O)c2cccc(C(=O)c3c(F)cc([C@@H](C)N)cc3F)c12 [Product P50, 5-{4-[(1R)-1-Aminoethyl]-2,6-difluorobenzoyl}-4-methylisoquinolin-1(2H)-one hydrochloride] | -58 | -16.8 |
| 23 | 10 | CC(C)(N)c1cc(F)c(C(=O)c2cccc3cnccc23)c(F)c1 [Product P24, [4-(2-Aminopropan-2-yl)-2,6-difluorophenyl](isoquinolin-5-yl)methanone dihydrochloride] | -68.2 | -52.5 |

— patent publication US9809553B2, “Isoquinoline compounds, a process for their preparation, and pharmaceutical compositions containing them” (LES LABORATOIRES SERVIER, priority 2014, dated 2017)
